# Laboratory results published in publication PMC12040169 (PLOS Biology, 2025).
# Experiment: in vitro
# Details: human, hela cells, % viability
row,Compound,"viability at 28.5 h, 10 µM"
1,CC(C)c1cc(C(=O)NCCN2CCc3ccccc32)n(C)n1 [CBK282685],86.7%
2,CCCS(=O)(=O)NC1CCN(c2nc(C(F)(F)F)nc3ccsc23)CC1 [CBK304591],87%
3,Nc1nnc(CCS(=O)(=O)c2ccc(Br)cc2)s1 [CBK026286],109%
4,Cn1nc(-c2cccs2)cc1[C@H]1CN2CC[C@H]1C[C@@H]2CNS(C)(=O)=O [CBK289102],93.5%
5,O=C(O)c1ccc(CSc2nc(-c3ccccc3)cc(C(F)(F)F)n2)o1 [CBK269514],105%
6,Cc1ccc(CN2CC[C@H]3NC(=O)c4ccccc4OCC/C=C/C[C@H]3C2)cn1 [CBK292056],98.6%
7,O=C(c1cccnc1)C1CCN(C(=O)CC2CC3CCC2C3)CC1 (stereo not drawn) [CBK283530],95.1%
8,Nc1ccc(S(=O)(=O)c2ccc(-n3c(=O)c4cc5c(=O)n(-c6ccc(S(=O)(=O)c7ccc(N)cc7)cc6)c(=O)c5cc4c3=O)cc2)cc1 [CBK261490],92%
9,O=C(CCC(=O)c1ccc(F)cc1)Nc1cccnc1 [CBK266901],89.4%
10,CCOC(=O)C(NC(=O)c1cc[nH]n1)c1cccc(C)c1C (stereo not drawn) [CBK304131],85.5%
11,Cc1cc(C)n(CCn2cc(-c3ncc[nH]3)nn2)c(=O)n1 [CBK307554],83.1%
12,CCN1CCN(c2ccc(C(=O)OC)cc2NC(=O)c2ccccc2Cl)CC1 [CBK270267],98.3%
13,Cc1c(C(=O)NCCCN2CCOCC2)oc2c1C(=O)CCC2 [CBK270207],93.1%
14,Cc1ccc(C(=O)O)cc1S(=O)(=O)NCCCO [CBK267171],96.9%
15,O=S(=O)(Cc1ccc(-c2nc(-c3ccncc3)no2)o1)c1ccccc1 [CBK288579],96.6%
16,COc1cc2[nH]c(=S)n(CCc3c[nH]cn3)c(=O)c2cc1OC [CBK268333],102%
17,CC(=O)Nc1ccc(S(=O)(=O)Nc2ccc(S(=O)(=O)Nc3ccc(C)c(C)c3)cc2)cc1 [CBK264643],101%
18,COc1cccc(C(=O)NNC(=O)c2ccc(F)cc2)c1 [CBK261705],106%
19,CCn1c(C)nc2cc(NC(=O)Cn3cccn3)ccc21 [CBK281828],89.5%
20,Cc1ccc(S(=O)(=O)Oc2cccc(C(c3c(C)n[nH]c3O)c3c(C)n[nH]c3O)c2)cc1 [CBK265016],95.1%
21,Clc1ccc(OCc2ccccc2)c(CNCCN2CCOCC2)c1 [CBK278162C],93.4%

row,Compound,"viability at 28.5 h, 10 µM"
1,CN(Cc1ccccc1)C(=O)c1cc(=O)[nH]c2ccccc12 [CBK287971],92.8%
2,Cc1cc(C)n(CCCNC(=O)Cn2cnc3sc(C)c(C)c3c2=O)n1 [CBK305852],76.2%
3,CCc1nc2ccc(C(=O)Nc3ccc(NC(C)=O)cc3)cn2c1N(C)C(=O)Cc1ccccc1 [CBK146855],95.3%
4,O=c1[nH]c2ncc(-c3ccco3)nc2n1CCCN1CCOCC1 [CBK064319],90.6%
5,CC(C)N(C(=O)CN1C(=O)N2CCN=C2c2ccccc21)C(C)C [CBK284005],87%
6,O=C(NCc1ccc(F)cc1)c1ccc(=O)n(CC(=O)N2CCC3(CCCCC3)C2)c1 [CBK286021],109%
7,CC(Cn1cccn1)NCC(=O)N(C)C1(C#N)CCCCC1 (stereo not drawn) [CBK305096],91.5%
8,CN1CCc2c(sc3c2C(=O)NC(c2ccco2)N3)C1 (stereo not drawn) [CBK287277],99.4%
9,O=C(NC1(c2ccc(Cl)cc2)CC1)C1CCS(=O)(=O)C1 (stereo not drawn) [CBK282765],75.3%
10,CCN(C(=O)C(C)N(C)Cc1c(C)nn(C2CCS(=O)(=O)C2)c1C)c1cccc2ccccc12 (stereo not drawn) [CBK295206],108%
11,CCC(C)NC1=NC(=O)C(CC(=O)Nc2ccccc2Cl)S1 (stereo not drawn) [CBK059133T],97.3%
12,OC(CN1CCC2(CC1)CC(O)c1cc(F)ccc1O2)c1ccc(-c2ccccc2)cc1 (stereo not drawn) [CBK286331],102%
13,Cc1cc2ncn(CC(=O)NC3Cc4ccccc4C3)c2cc1C [CBK200261],97.3%
14,COc1ccc(CNC(=O)c2ccccc2NS(=O)(=O)c2cc(Cl)ccc2Cl)cc1 [CBK113964],101%
15,CC(=O)Nc1ccc(S(=O)(=O)NCCSc2ccc(C)cc2)cc1 [CBK263563],111%
16,COc1ccccc1OCC(=O)Nc1cnc(-c2cccc(C)c2)c(-c2cccnc2)n1 [CBK037112],84.1%
17,Oc1cccc2ccc(/C=N/N=C/c3ccc4cccc(O)c4n3)nc12 [CBK261127],89.3%
18,CC1(C)C(CC(=O)NC2CCCCC2)CC1C(=O)NC1CCCCC1 (stereo not drawn) [CBK009260],98.8%
19,CSc1nsc(SCC(=O)c2ccc(NC(C)=O)cc2)n1 [CBK268755],82.3%
20,COc1ccc2[nH]c3c(c2c1)CCNC31CCN(Cc2ccc(S(C)(=O)=O)cc2)CC1 [CBK039753],88.8%
21,COc1cc(/C=N/Nc2ccc(C(=O)O)cc2)cc(Br)c1O [CBK263318],95.8%

row,Compound,"viability at 28.5 h, 10 µM"
1,Cc1ccc2c(c1)cc(C(=O)N1CCCC(C)(C(=O)NC3CCCC3)C1)n2C (stereo not drawn) [CBK286076],81.3%
2,Cn1c(=O)c2c(nc(N3CCOCC3)n2CC/N=C2/CCCCCN2)n(C)c1=O [CBK267708C],85.7%
3,Cc1noc2nc(-c3cccnc3)cc(C(=O)O)c12 [CBK288207],92.4%
4,Cc1cc(C)n(C2CN(CC(=O)NCc3ccccn3)C2)n1 [CBK306238],88.3%
5,O=c1ccc2c(-c3ccsc3)ccnc2[nH]1 [CBK073724],91.5%
6,O=C(Cn1cc(C(=O)NC2CCCC2)ccc1=O)NCC1(c2ccccc2)CCCC1 [CBK286248],94.7%
7,CCC(c1ccc(F)cc1F)N1CCN(Cc2nc(C)no2)CC1 (stereo not drawn) [CBK304032],103%
8,NC(=NOC(=O)c1cccc(Br)c1)c1ccccc1 [CBK261703],92.7%
9,CS(=O)(=O)N(CC(=O)Nc1ccc2c(c1)OCO2)c1ccc(Oc2ccccc2)cc1 [CBK263989],91.5%
10,Nc1cccnc1OCCN1CCN(CC(=O)N2CCCCc3ccccc32)CC1 [CBK007764],95.1%
11,N=c1n(CCN2CCCCC2)c2ccccc2n1CC(O)c1cccs1 (stereo not drawn) [CBK262908C],94.9%
12,CS(=O)(=O)N1CCCC(C(=O)NCc2ccccn2)C1 (stereo not drawn) [CBK269308],101%
13,Cc1ccccc1NC(=O)Cc1nnc(SCC(=O)c2ccccc2)n1C [CBK269719],101%
14,CCc1nn(CC(=O)NC2CCC2)c(=O)c2cc3ccsc3n12 [CBK284136],88.9%
15,CC1(CC(=O)Nc2ccccc2)NC(=S)N(c2ccccc2)N1 (stereo not drawn) [CBK265534],105%
16,CC1CN(C(C)N2CC(C)OC2=O)C(=O)O1 (stereo not drawn) [CBK022981],89.8%
17,Cc1ccc2nsnc2c1NC(=O)CN1CCC(C)CC1 [CBK269568],86.2%
18,COc1ccc(Nc2nc(N)nc(CSC(=S)N3CCN(C)CC3)n2)cc1 [CBK265232],90.8%
19,O=C(NCCC1=CCCCC1)Nc1ccc(F)c(F)c1F [CBK043265],89.3%
20,COc1ccc(S(=O)(=O)NCCc2ccc(S(N)(=O)=O)cc2)cc1[N+](=O)[O-] [CBK267598],94.1%
21,CCC(c1ccc2c(c1)CCO2)N1CCN(Cc2nc(C)no2)CC1 (stereo not drawn) [CBK304237],90.3%
